Earlier results as cited in patent US8481087B2, “Withania somnifera plant extract and method of preparation thereof” (National Brain Research Centre, priority 2008, dated 2013).

Tested on: severely damaged neurons
Details: severely damaged neurons in vitro

Structure (SMILES): CC1=C(C)C(=O)O[C@@H]([C@](C)(O)[C@H]2CC[C@H]3[C@@H]4[C@@H]5O[C@@H]5[C@@]5(O)CC=CC(=O)[C@]5(C)[C@H]4CC[C@]23C)C1 [Withanolide-A]
- neurite regeneration and synapse reconstruction: regenerate neurites and reconstruct synapses
